Biological target: SphK1 (Homo sapiens, UniProt Q9NYA1)
Assay: SphK1 384-well flashplate kinase assay
Type: biochemical
Settings: enzyme assay
Procedure: The kinase assay is carried out as a 384-well flashplate assay.
5 nM modified SphK1, 800 nM omega-biotinyl-D-erythro-sphingosine and 1 μM ATP (with 0.3 μCi of ^33P-ATP/well) are incubated in a total volume of 50 μl (25 mM HEPES, 5 mM MgCl2, 1 mM dithiothreitol, 0.01% of Brij35, 0.1% of BSA (fatty acid-free), pH 7.4) without or with test substance (5-10 concentrations) at 30° C. for 120 min. The reaction is terminated using 25 μl of 200 mM EDTA solution, filtered off with suction at room temperature after 30 min, and the cavities are washed 3 times with 100 μl of 0.9% NaCl solution. The non-specific proportion of the kinase reaction (blank) is determined using 0.5 mM NaCl. Radioactivity is measured in topcount. IC50 values are calculated using RS1.

Sequence of SphK1 (Q9NYA1 whole entry): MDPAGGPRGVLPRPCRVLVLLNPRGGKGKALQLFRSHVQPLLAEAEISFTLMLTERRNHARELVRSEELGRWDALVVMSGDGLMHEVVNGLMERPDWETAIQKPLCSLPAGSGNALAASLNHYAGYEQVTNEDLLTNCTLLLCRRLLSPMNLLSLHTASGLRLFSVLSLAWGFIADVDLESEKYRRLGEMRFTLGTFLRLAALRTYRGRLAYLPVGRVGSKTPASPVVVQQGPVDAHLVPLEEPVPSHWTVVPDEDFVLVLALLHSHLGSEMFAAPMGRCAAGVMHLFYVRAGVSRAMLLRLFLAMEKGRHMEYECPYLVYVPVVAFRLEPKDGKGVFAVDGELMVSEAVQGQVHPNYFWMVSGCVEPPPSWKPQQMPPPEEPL

Row | SMILES | IC50
1 | CC(=O)N1CCC(c2nc(-c3ccc4c(c3)C(C)(C)CCC4(C)C)cs2)CC1 [Compound A80] | 1000 to 10000 nM
2 | CC1(C)CCC(C)(C)c2cc(-c3csc(C4CCN(CCN)CC4)n3)ccc21 [Compound A81] | 10 to 1000 nM
3 | Cc1oncc1S(=O)(=O)N1CCC(c2nc(-c3ccc4c(c3)C(C)(C)CCC4(C)C)cs2)CC1 [Compound A82] | 1000 to 10000 nM
4 | CC1(C)CCC(C)(C)c2cc(-c3csc(C4CCN(S(C)(=O)=O)CC4)n3)ccc21 [Compound A83] | > 10000 nM
5 | CC1(C)CCC(C)(C)c2cc(-c3csc(C4CCN(CCCN5CCOCC5)CC4)n3)ccc21 [Compound B1] | 1000 to 10000 nM
6 | CC1(C)CCC(C)(C)c2cc(-c3csc(C4CCN(CCCCO)CC4)n3)ccc21 [Compound B2] | 10 to 1000 nM
7 | CC1(C)CCCc2cc(-c3csc(C4CCN(CCCCO)CC4)n3)ccc21 [Compound B3] | 10 to 1000 nM
8 | CC1(C)CC(C)(C)c2cc(-c3csc(C4CCN(CCCO)CC4)n3)ccc21 [Compound B4] | 10 to 1000 nM
9 | CC1(C)CC(C)(C)c2cc(-c3csc(C4CCN(CCCCCO)CC4)n3)ccc21 [Compound B5] | 10 to 1000 nM
10 | CC1(C)CC(C)(C)c2cc(-c3csc(C4CCN(CCCCO)CC4)n3)ccc21 [Compound B6] | 10 to 1000 nM
11 | CC1(C)CCC(C)(C)c2cc(-c3csc(C4CCN(Cc5cc[nH]n5)CC4)n3)ccc21 [Compound B7] | 10 to 1000 nM
12 | Cn1cccc1CN1CCC(c2nc(-c3ccc4c(c3)C(C)(C)CCC4(C)C)cs2)CC1 [Compound B8] | 1000 to 10000 nM
13 | CC1(C)CCC(C)(C)c2cc(-c3csc(C4CCN(Cc5ccc(CO)o5)CC4)n3)ccc21 [Compound B9] | 1000 to 10000 nM
14 | CC1(C)CCC(C)(C)c2cc(-c3csc(C4CCN(CCCCCO)CC4)n3)ccc21 [Compound B10] | 10 to 1000 nM
15 | CCn1nccc1CN1CCC(c2nc(-c3ccc4c(c3)C(C)(C)CCC4(C)C)cs2)CC1 [Compound B11] | 1000 to 10000 nM
16 | Cc1noc(C)c1CN1CCC(c2nc(-c3ccc4c(c3)C(C)(C)CCC4(C)C)cs2)CC1 [Compound B12] | 1000 to 10000 nM
17 | CC1(C)CCC(C)(C)c2cc(-c3csc(C4CCN(Cc5ncc[nH]5)CC4)n3)ccc21 [Compound B13] | 10 to 1000 nM
18 | CN(C)n1cccc1CN1CCC(c2nc(-c3ccc4c(c3)C(C)(C)CCC4(C)C)cs2)CC1 [Compound B14] | 1000 to 10000 nM
19 | CC1(C)CCC(C)(C)c2cc(-c3csc(C4CCN(C(=O)OCC5CNCCO5)CC4)n3)ccc21 (centres unmarked) [Compound B16] | 1000 to 10000 nM
20 | CC1(O)CCCc2cc(-c3csc(C4CCNCC4)n3)ccc21 (centres unmarked) [Compound C2] | 10 to 1000 nM
21 | CC1(C)CCCc2ccc(-c3csc(C4CCNCC4)n3)cc21 [Compound C3] | 10 to 1000 nM
22 | Cc1cc2c(cc1-c1csc(C3CCNCC3)n1)C(C)(C)CCC2(C)C [Compound C5] | 1000 to 10000 nM
23 | c1cc2c(cc1-c1csc(C3CCNCC3)n1)CCCC2 [Compound C6] | 10 to 1000 nM
24 | CC1(C)CC(C)(C)c2cc(-c3csc(C4CCNCC4)n3)ccc21 [Compound C7] | 10 to 1000 nM
25 | Cc1cc(-c2csc(C3CCNCC3)n2)c(O)c2c1CCC2 [Compound C10] | 1000 to 10000 nM
26 | CCc1cc2c(cc1-c1csc(C3CCNCC3)n1)C(C)(C)CCC2(C)C [Compound C11] | > 10000 nM

Reference: patent US8436186B2, “Thiazolyl piperidine derivatives” (Merck Patent Gesellschaft mit beschrankter Haftung, priority 2008, dated 2013)
